# According to paper PMC11604048, “Constrained TACC3 peptidomimetics for a non-canonical protein–protein interface elucidate allosteric communication in Aurora-A kinase” (Chemical Science, 2024):
# Like-named read-outs stand apart in the source and are kept apart here. *1 amine or outer side, *2 acyl side, *3 side chain or, on linkers, in order; H or OH if unused. Where a SMILES comes first, the peptide text is derived from it. Bridges are numbered along the chain shown (N, C = ends). [ ]: non-standard residue; d: D form. The star is where a group is joined. 5FAM = O=C1OC2(c3ccc(O)cc3Oc3cc(O)ccc32)c2ccc(C(=O)*)cc21; Biphenyl(4,4'-CH2)2 = c1cc(-c2ccc(C[*:2])cc2)ccc1C[*:1]; Maleimide(3,4-diyl) = O=C1NC(=O)C([*:2])=C1[*:1]; Bpa = N[C@@H](Cc1ccc(C(=O)c2ccccc2)cc1)C(=O)O; Pro(trans-4-F) = O=C(O)[C@@H]1C[C@@H](F)CN1; Phe(4-Br) = N[C@@H](Cc1ccc(Br)cc1)C(=O)O; Ahx = NCCCCCC(=O)O
# Columns and labels:
# [1] = biological target: T1, Aurora-A122-403-C290A/C393A (Homo sapiens, UniProt O14965, C290A/C393A); test: FA direct binding assay (Aurora-A titrated into FAM-Ahx-labelled peptide); parameters: ΔG: unit not given here; settings: for ΔG: Table S6, from direct FA titration, n = 6
# T1 construct: Human Aurora-A kinase domain 122-403 wild-type or C290A/ C393A mutant; His tag (pET30TEV vector) (N, cleaved yes); made in house; host or cells: E. coli RIL, co-expressed with lambda phosphatase (Aurora-A); tracer by solid phase synthesis
# T1 sequence (O14965 122-403 C290A/C393A): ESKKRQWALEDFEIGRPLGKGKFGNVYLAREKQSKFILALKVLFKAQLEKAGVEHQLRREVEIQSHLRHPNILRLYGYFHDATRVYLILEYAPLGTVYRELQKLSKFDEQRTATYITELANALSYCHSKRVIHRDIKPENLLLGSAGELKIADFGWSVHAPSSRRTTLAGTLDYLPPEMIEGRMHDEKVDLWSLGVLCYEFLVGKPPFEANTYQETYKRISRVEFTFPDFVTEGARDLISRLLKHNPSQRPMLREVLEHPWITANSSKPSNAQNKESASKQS
# Procedure: Fluorescence anisotropy (FA) assays – General information.
# All assays were performed using 384-well plates(Greiner Bio-one, UK). […]
# produced as described previously.11 All samples were prepared in 25 mM Tris,150 mM NaCl, 5 mM MgCl2, […]
# (PerkinElmer; Waltham, MA, USA).The parameters were set as follows: Excitation wavelength = 480 nm […]
# Measured data were processed and analysed as previously described.12 Specifically, the perpendicular intensity (P) and parallel intensity (S) were subtracted by the control values and used for calculations of intensity and anisotropy using the following Equations 1, 2, 3, 4, and 5:
# I= (2PG) + S Eq. (SI − 5)
# r = (S − PG) Eq. (SI − 6)
# L = r − r௠௜௡ Eq. (SI − 7)
# y = (k + x + [FL]) − ඥ(k + x + [FL]2 − 4 ∗ x ∗ [FL]) Eq. (SI − 8)
# y = r + r௠௜௡ − r௠௔௫ Eq. (SI − 9)
# Where I = total intensity; P = perpendicular intensity; S = parallel intensity; G = instrument factor; r = anisotropy; Lb = ligand bound fraction; λ = change in intensity between bound and unbound states which […]
# FA direct binding assays. […]
# starting from 700 μM, diluted over 24 points in a 1/2 regime using the FAM-Ahx-labeled peptides at a final fixed concentration of 50 nM per well.
# [2] = biological target: T1, Aurora-A122-403-C290A/C393A; test: Isothermal titration calorimetry (ITC); type: binding; settings: single titration
# Procedure: Isothermal titration calorimetry (ITC). ITC experiments were carried out using a MicroCal PEAQ-ITC system (Malvern Panalytical) at 25 °C. A stock solution of Aurora-A 122-403-290A/C393A was dialyzed into ITC buffer overnight (25 mM Tris buffer, pH= 7.5; 150 mM NaCl; 5 mM MgCl2; 5 % v/v glycerol), and the same buffer was employed to resuspend a solid portion of the testing peptides. For each experiment, initially, the cell was filled with 275 µl of Aurora-A122-403-290A/C393A (46 μM) and the syringe was loaded with the corresponding peptide at 1.25 mM concentration. An initial injection of 0.5 μL was then followed by 13 injections of 3 μL, every 150 s, with a constant syringe rotation speed of 750 rpm throughout. The signal for the enthalpy of dilution of each peptide into buffer was independently measured in a control titration experiment and then subtracted from the experimental binding traces. The Kd, ΔG°, ΔH° and -TΔS° values were determined via the MicroCal PEAQ-ITC analysis software (Malvern Paranalytical) using a single-site binding model. […]
# [3] = biological target: T1, Aurora-A122-403-C290A/C393A; test: Competition FA assay against FAM-Ahx-TACC3 522-536 tracer; type: binding
# [4] = Table S6, direct FA titration, 50 nM fluorescein-labelled peptide, Tris buffer pH 7.5, mean ± SD, n = 6, read-out: Kd
# [5] = 50 nM fluorescein-labelled peptide, mean ± SD
smiles,measurement,setting,value
"CC(C)C[C@H](NC(=O)[C@@H](NC(=O)[C@H](CCC(=O)O)NC(=O)[C@H](C)NC(=O)[C@@H]1C[C@@H](F)CN1C(=O)[C@H](CC(=O)O)NC(=O)[C@@H]1CSCc2ccc(cc2)-c2ccc(cc2)CSC[C@H](NC(=O)[C@H](CCC(=O)O)NC(=O)[C@H](CC(C)C)NC(=O)CCCCCNC(=O)c2ccc3c(c2)C(=O)OC32c3ccc(O)cc3Oc3cc(O)ccc32)C(=O)N[C@@H](CCCCN)C(=O)N[C@@H](CCC(=O)O)C(=O)N[C@@H](CCC(=O)O)C(=O)N[C@@H](CO)C(=O)N[C@@H](Cc2ccc(Br)cc2)C(=O)N1)C(C)C)C(N)=O [FAM-Ahx-TACC3 518-532-L/R-Bph-BrF/fP] ({5FAM-Ahx}-LECKEES[Phe(4-Br)]CD[Pro(trans-4-F)]AEVL-NH2; linker 3-9 via Biphenyl(4,4'-CH2)2)",Kd,[1]; [4],1.48 ± 0.16 µM
same,ΔG,[1]; [5],-33.3 ± 0.3
"CC(C)C[C@H](NC(=O)[C@@H](NC(=O)[C@@H]1CSCc2ccc(cc2)-c2ccc(cc2)CSC[C@H](NC(=O)[C@H](CCC(=O)O)NC(=O)[C@H](CCC(=O)O)NC(=O)[C@H](CCCCN)NC(=O)[C@H](CC(C)C)NC(=O)[C@H](CCC(=O)O)NC(=O)[C@H](CC(C)C)NC(=O)CCCCCNC(=O)c2ccc3c(c2)C(=O)OC32c3ccc(O)cc3Oc3cc(O)ccc32)C(=O)N[C@@H](Cc2ccc(Br)cc2)C(=O)N[C@@H](CCCNC(=N)N)C(=O)N[C@@H](CC(=O)O)C(=O)N2C[C@H](F)C[C@H]2C(=O)N[C@@H](C)C(=O)N1)C(C)C)C(N)=O [FAM-Ahx-TACC3 518-532-S/E-Bph-BrF/fP] ({5FAM-Ahx}-LELKEEC[Phe(4-Br)]RD[Pro(trans-4-F)]ACVL-NH2; linker 7-13 via Biphenyl(4,4'-CH2)2)",Kd,[1]; [4],0.62 ± 0.15 µM
same,ΔG,[1]; [5],-35.5 ± 0.6
CC(=O)N[C@@H](CCC(=O)O)C(=O)N[C@@H](CCC(=O)O)C(=O)N[C@@H](CO)C(=O)N[C@@H](Cc1ccccc1)C(=O)N[C@@H](CCCNC(=N)N)C(=O)N[C@@H](CC(=O)O)C(=O)N1CCC[C@H]1C(=O)N[C@@H](C)C(=O)N[C@@H](CCC(=O)O)C(=O)N[C@H](C(=O)N[C@@H](CC(C)C)C(=O)NCC(=O)N[C@H](C(=O)NCC(=O)N[C@@H](C)C(N)=O)[C@@H](C)O)C(C)C [TACC3 522-536],Kd,"[2]; ITC 25 °C, Aurora-A 46 µM in cell, Ac-capped peptide 1.25 mM, 25 mM Tris, 150 mM NaCl, 5 mM MgCl2, 5% v/v glycerol, pH 7.5, N restrained fit (N = 1)",57.4 µM
same,Kd,"[2]; ITC as E13, N unrestrained fit",58.6 µM
CC(C)C[C@H](NC(=O)[C@H](Cc1ccc(O)cc1)NC(=O)[C@H](CC(=O)O)NC(=O)[C@@H](NC(=O)[C@H](CCC(=O)O)NC(=O)[C@H](C)NC(=O)CNC(=O)[C@@H](NC(=O)CNC(=O)[C@H](CC(C)C)NC(=O)[C@@H](NC(=O)[C@H](CCC(=O)O)NC(=O)[C@H](C)NC(=O)[C@@H]1CCCN1C(=O)[C@H](CC(=O)O)NC(=O)[C@H](CCCNC(=N)N)NC(=O)[C@H](Cc1ccccc1)NC(=O)[C@H](CO)NC(=O)[C@H](CCC(=O)O)NC(=O)[C@H](CCC(=O)O)NC(=O)CCCCCNC(=O)c1ccc2c(c1)C(=O)OC21c2ccc(O)cc2Oc2cc(O)ccc21)C(C)C)[C@@H](C)O)C(C)C)C(=O)N[C@@H](CCC(=O)O)C(=O)N[C@@H](CCC(N)=O)C(=O)N[C@@H](Cc1ccccc1)C(=O)NCC(=O)N[C@H](C(=O)N[C@@H](CO)C(=O)N[C@@H](CO)C(=O)N[C@@H](Cc1ccccc1)C(=O)N[C@@H](CCCCN)C(=O)N[C@@H](CCC(=O)O)C(=O)N[C@@H](CO)C(N)=O)[C@@H](C)O [FAM-Ahx-TACC3 522-552] ({5FAM-Ahx}-EESFRDPAEVLGTGAEVDYLEQFGTSSFKES-NH2),Kd,"[1]; direct FA titration of Aurora-A122-403-C290A/C393A into 50 nM FAM-Ahx-labelled peptide, 25 mM Tris, 150 mM NaCl, 5 mM MgCl2, pH 7.5, 25 °C, mean ± SD, n = 3, read-out: Kd",5.2 ± 0.5 µM
CC(=O)N[C@@H](CCC(=O)O)C(=O)N[C@@H](CCC(=O)O)C(=O)N[C@@H](CO)C(=O)N[C@@H](Cc1ccccc1)C(=O)N[C@@H](CCCNC(=N)N)C(=O)N[C@@H](CC(=O)O)C(=O)N1CCC[C@H]1C(=O)N[C@@H](CS)C(=O)N[C@@H](CCC(=O)O)C(=O)N[C@H](C(=O)N[C@@H](CS)C(=O)NCC(=O)N[C@H](C(=O)NCC(=O)N[C@@H](C)C(N)=O)[C@@H](C)O)C(C)C [TACC3 522-536 A529C/L532C (red)] (Ac-EESFRDPCEVCGTGA-NH2),IC50,"[3]; as E1, free-sulfhydryl (reduced) species, DTT 5 mM in buffer, WT control (+DTT), mean ± SD, n = 3, read-out: IC50 (red)",≥ 500 µM
CC(=O)N[C@@H](CCC(=O)O)C(=O)N[C@@H](CCC(=O)O)C(=O)N[C@@H](CO)C(=O)N[C@@H](Cc1ccc(Cl)cc1)C(=O)N[C@@H](CCCNC(=N)N)C(=O)N[C@@H](CC(=O)O)C(=O)N1CCC[C@H]1C(=O)N[C@@H](C)C(=O)N[C@@H](CCC(=O)O)C(=O)N[C@H](C(=O)N[C@@H](CC(C)C)C(=O)NCC(=O)N[C@H](C(=O)NCC(=O)N[C@@H](C)C(N)=O)[C@@H](C)O)C(C)C [TACC3 522-536_(4-Cl)525F],IC50,"[3]; SD, read-out: IC50",46 ± 8 µM
CC(=O)N[C@@H](CCC(=O)O)C(=O)N[C@@H](CCC(=O)O)C(=O)N[C@@H](CO)C(=O)N[C@@H](Cc1ccc(C(=O)c2ccccc2)cc1)C(=O)N[C@@H](CCCNC(=N)N)C(=O)N[C@@H](CC(=O)O)C(=O)N1CCC[C@H]1C(=O)N[C@@H](C)C(=O)N[C@@H](CCC(=O)O)C(=O)N[C@H](C(=O)N[C@@H](CC(C)C)C(=O)NCC(=O)N[C@H](C(=O)NCC(=O)N[C@@H](C)C(N)=O)[C@@H](C)O)C(C)C [TACC3 522-536_(pBnz) -525F] (Ac-EES[Bpa]RDPAEVLGTGA-NH2),IC50,[3],≥ 500 µM
CC(=O)N[C@@H](CCC(=O)O)C(=O)N[C@@H](CCC(=O)O)C(=O)N[C@@H](CO)C(=O)N[C@@H](Cc1ccc(Br)cc1)C(=O)N[C@@H](CCCNC(=N)N)C(=O)N[C@@H](CC(=O)O)C(=O)N1CCC[C@H]1C(=O)N[C@@H](C)C(=O)N[C@@H](CCC(=O)O)C(=O)N[C@H](C(=O)N[C@@H](CC(C)C)C(=O)NCC(=O)N[C@H](C(=O)NCC(=O)N[C@@H](C)C(N)=O)[C@@H](C)O)C(C)C [TACC3 522-536_(4-Br)525F],IC50,"[3]; SD, read-out: IC50",34 ± 6 µM
COc1ccc(C[C@H](NC(=O)[C@H](CO)NC(=O)[C@H](CCC(=O)O)NC(=O)[C@H](CCC(=O)O)NC(C)=O)C(=O)N[C@@H](CCCNC(=N)N)C(=O)N[C@@H](CC(=O)O)C(=O)N2CCC[C@H]2C(=O)N[C@@H](C)C(=O)N[C@@H](CCC(=O)O)C(=O)N[C@H](C(=O)N[C@@H](CC(C)C)C(=O)NCC(=O)N[C@H](C(=O)NCC(=O)N[C@@H](C)C(N)=O)[C@@H](C)O)C(C)C)cc1 [TACC3 522-536_F525Y(OMe)] (Ac-EESY(Me)RDPAEVLGTGA-NH2),IC50,[3]; read-out: IC50,≥ 300 µM
"CC(=O)N[C@@H](CCC(=O)O)C(=O)N[C@@H](CCC(=O)O)C(=O)N[C@@H](CO)C(=O)N[C@@H](Cc1ccccc1)C(=O)N[C@@H](CCCNC(=N)N)C(=O)N[C@H]1CSC2=C(SC[C@@H](C(=O)N[C@H](C(=O)N[C@@H](CC(C)C)C(=O)NCC(=O)N[C@H](C(=O)NCC(=O)N[C@@H](C)C(N)=O)[C@@H](C)O)C(C)C)NC(=O)[C@H](C)NC(=O)[C@@H]3CCCN3C1=O)C(=O)NC2=O [TACC3 522-536 D527C/E530C (mal)] (Ac-EESFRCPACVLGTGA-NH2; linker 6-9 via Maleimide(3,4-diyl))",IC50,"[3]; as E1, Table S3 (mal): maleimide-constrained species, WT value is an individual replica control assay, mean ± SD, n = 3, SD, read-out: IC50 (mal)",186 ± 50 µM
